In general, Ki refers to a dissociation constant, usually derived from enzyme kinetics or from competition with a known ligand. As usually defined, the Cmax is the maximum level reached in the sampled fluid or tissue. Broadly, the Tmax is the time at which the peak concentration occurs.

In one data set the target is T1, human GnRH receptors (Homo sapiens, UniProt P30968).
T1 construct: expressed in transfected cells; host or cells: HEK 293 cells, stably transfected; membranes
T1 sequence (P30968 1-328): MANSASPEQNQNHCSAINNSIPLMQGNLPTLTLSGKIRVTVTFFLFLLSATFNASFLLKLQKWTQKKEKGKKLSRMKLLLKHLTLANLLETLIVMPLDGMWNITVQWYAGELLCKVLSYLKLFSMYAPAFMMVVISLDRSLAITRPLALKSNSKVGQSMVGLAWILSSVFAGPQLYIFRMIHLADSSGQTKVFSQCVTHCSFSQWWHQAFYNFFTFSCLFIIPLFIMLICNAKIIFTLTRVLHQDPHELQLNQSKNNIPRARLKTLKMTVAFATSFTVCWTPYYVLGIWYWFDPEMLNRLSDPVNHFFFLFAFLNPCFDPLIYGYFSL
As to the kind of experiment: Radioligand binding: inhibition of 125I-GnRH-A binding to human GnRH receptor membranes. The settings on record: HEK 293 cell membranes. In a few lines:
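Membranes from rat pituitaries, or HEK 293 cells stably expressing mouse or human receptor, incubated 1 hour at room temperature with ~0.04-0.06 nM radioligand (HEPES pH 7.4, EDTA, MgCl2, BSA) and competitor at 0.1-10,000 nM. Bound ligand collected by GF/C filtration and counted; Ki derived from IC50 by Cheng-Prusoff.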

Another data set concerns the target H S A (Homo sapiens, UniProt P02768). Kind of data set: H S A column α. It is filed as in vitro ADME.
Data set [1] in a line: Pharmacokinetics in rats (jugular vein cannula, plasma LC-MS). Type of data set: in vivo, Rat. The settings on record: for Cmax / half-life / Tmax: rat, plasma, po. The procedure: Rats (male or female, 200-225 g) were prepared with indwelling jugular vein cannula as described by Harms et al., Applied Physiol. 36:391-398 (1974), and allowed to recover overnight with free access to the standard vivarium chow and water. […] […] The blood samples were withdrawn at specific times, plasma was immediately separated and compound extracted with ethyl acetate. The samples were analyzed by LC-MS using 30-90% gradient of ACN in 50 mM ammonium acetate.
The pharmacokinetic parameters were calculated using WinNonlin software (Scientific Consulting Inc.). The bioavailability was calculated as AUCp.o./AUCi.v., where AUCp.o. and AUC i.v. are areas under the plasma concentration-time curve after oral and i.v. administration, respectively.

Where [2] appears, read: female rat, 10 mg/kg as 5 mg/ml solution in 10% DMSO, 10% cremophor, 80% saline (footnote 5).
Where [3] appears, read: female, 10 mg/kg, female rat, 10 mg/kg as 5 mg/ml solution in 10% DMSO, 10% cremophor, 80% saline (footnote 5), read-out: FR Cmax.
Where [4] appears, read: female, 10 mg/kg, female rat, 10 mg/kg as 5 mg/ml solution in 10% DMSO, 10% cremophor, 80% saline (footnote 5), read-out: FR T1/2 hr (converted).
[5] abbreviates: female, 10 mg/kg, female rat, 10 mg/kg as 5 mg/ml solution in 10% DMSO, 10% cremophor, 80% saline (footnote 5), read-out: FR Tmax hr.

Each structure is given as a SMILES string. Read-outs that look alike come from different tables or passages of the source. A value given as a limit tells only on which side of the number the result lay.

Sequence of H S A (P02768 25-609): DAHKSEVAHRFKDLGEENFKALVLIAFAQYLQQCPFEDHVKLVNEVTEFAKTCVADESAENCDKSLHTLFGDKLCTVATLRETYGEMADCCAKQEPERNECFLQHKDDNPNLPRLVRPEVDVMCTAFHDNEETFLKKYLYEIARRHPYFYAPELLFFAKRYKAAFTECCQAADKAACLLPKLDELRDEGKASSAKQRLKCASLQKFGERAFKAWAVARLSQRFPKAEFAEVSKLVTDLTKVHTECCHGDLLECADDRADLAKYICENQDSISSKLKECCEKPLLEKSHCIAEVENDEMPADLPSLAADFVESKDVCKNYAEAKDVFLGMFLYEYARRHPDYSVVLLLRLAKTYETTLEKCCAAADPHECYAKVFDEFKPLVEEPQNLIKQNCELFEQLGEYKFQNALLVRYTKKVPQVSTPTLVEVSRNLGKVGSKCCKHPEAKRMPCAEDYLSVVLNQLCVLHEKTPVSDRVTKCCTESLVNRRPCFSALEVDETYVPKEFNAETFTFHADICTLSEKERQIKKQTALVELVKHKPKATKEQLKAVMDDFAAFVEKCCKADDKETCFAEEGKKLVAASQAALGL

With `COc1nc(N(C)C)nc(OC)c1NC(=O)c1ccc(Cc2cc3c(cc2C)C(C)(C)CCC3(C)C)o1` [Example B2, 5-(3,5,5,8,8-Pentamethyl-5,6,7,8-tetrahydro-naphthalen-2-ylmethyl)-furan-2-carboxylic Acid (dimethylamino-dimethoxy-pyrimidin-5-yl)-amide], at human GnRH receptors, the Ki was found to be 1.8 nM. For the same compound, at H S A, the “H S A column α” value was greater than 30. Besides, the “FR Fp.o.” value in data set [1] (female rat, 6 mg/kg as 3 mg/ml solution in 6% DMSO, 6% cremophor, 88% saline (footnote 6)) is 10%^6. The maximum concentration (Cmax) in data set [1] (female, 6 mg/kg, female rat, 6 mg/kg as 3 mg/ml solution in 6% DMSO, 6% cremophor, 88% saline (footnote 6), read-out: FR Cmax) came out at 900 nM. Further, in data set [1] (female, 6 mg/kg, female rat, 6 mg/kg as 3 mg/ml solution in 6% DMSO, 6% cremophor, 88% saline (footnote 6), read-out: FR T1/2 hr (converted)), the half-life was 5.7 h. In addition, the Tmax in data set [1] (female, 6 mg/kg, female rat, 6 mg/kg as 3 mg/ml solution in 6% DMSO, 6% cremophor, 88% saline (footnote 6), read-out: FR Tmax hr) is 1 h.
The compound `COc1nc(OC)c(NC(=O)c2ccc(Cc3cc4c(cc3C)C(C)(C)CCC4(C)C)o2)c(OC)n1` [Example C1, 5-(3,5,5,8,8-Pentamethyl-5,6,7,8-tetrahydro-naphthalen-2-ylmethyl)-furan-2-carboxylic Acid (2,4,6-trimethoxy-pyrimidin-5-yl)-amide] showed an inhibition constant (Ki) at human GnRH receptors of 0.55 nM. The “H S A column α” value on H S A stood at 13. The “FR Fp.o.” value in data set [1] (setting [2]) came out at 56%^5. Also, the Cmax in data set [1] (setting [3]) amounted to 800 nM. Moreover, the half-life in data set [1] (setting [4]) was 2 h. Besides, the Tmax in data set [1] (setting [5]) was 2 h.
Consider `COc1nc(OCCO)nc(OC)c1NC(=O)c1ccc(Cc2cc3c(cc2C)C(C)(C)OC3(C)C)o1` [Example A3, 5-(1,1,3,3,6-Pentamethyl-1,3-dihydro-isobenzofuran-5-ylmethyl)-furan-2-carboxylic acid [2-(2-hydroxy-ethoxy)-4,6-dimethoxy-pyrimidin-5-yl]-amide], for which the Ki on human GnRH receptors was 7.7 nM. Moreover, the “H S A column α” value on H S A amounted to 0.4. Also, in data set [1] (setting [2]), the “FR Fp.o.” value stood at 60%^5. For the same compound, the Cmax in data set [1] (setting [3]) came to 4000 nM; in data set [1] (male, 20 mg/kg, male rat, 20 mg/kg as 10 mg/ml in Labrasol/H2O 1/1 (footnote 2), read-out: MR Cmax), 3200 nM; in data set [1] (male, 50 mg/kg, male rat, 50 mg/kg in 50 mg/ml PG (footnote 2), read-out: Cmax), 3700 nM. For the same compound, the half-life in data set [1] (setting [4]) was 2.2 h. For the same compound, the Tmax was 1 h in data set [1] (setting [5]); 1 h in data set [1] (male, 20 mg/kg, male rat, 20 mg/kg as 10 mg/ml in Labrasol/H2O 1/1 (footnote 2), read-out: MR Tmax hr); 0.5 h in data set [1] (male, 50 mg/kg, male rat, 50 mg/kg in 50 mg/ml PG (footnote 2), read-out: Tmax).
On to `COc1nc(OC)c(NC(=O)c2ccc(Cc3cc4c(cc3C)C(C)(C)OC4(C)C)o2)c(OC)n1` [Example A1, 5-(1,1,3,3,6-Pentamethyl-1,3-dihydro-isobenzofuran-5-ylmethyl)-furan-2-carboxylic Acid (2,4,6-trimethoxy-pyrimidin-5-yl)-amide], for which, at human GnRH receptors, affinity was put at a Ki of 4.6 nM. Also, the “H S A column α” value on H S A is 1. For the same compound, the “FR Fp.o.” value in data set [1] (female rat, 10 mg/kg as 5 mg/ml solution in 10% DMSO 20% Labrasol, 70% saline (footnote 4)) is reported as 37%^4. Also, the Cmax in data set [1] (female, 10 mg/kg, female rat, 10 mg/kg as 5 mg/ml solution in 10% DMSO 20% Labrasol, 70% saline (footnote 4), read-out: FR Cmax) is 1400 nM; in data set [1] (male, 10 mg/kg, male rat, 10 mg/kg as 5 mg/ml solution in 10% DMSO, 20% Labrasol, 70% saline (footnote 1), read-out: MR Cmax), 100 nM. Moreover, the half-life is 5.1 h in data set [1] (female, 10 mg/kg, female rat, 10 mg/kg as 5 mg/ml solution in 10% DMSO 20% Labrasol, 70% saline (footnote 4), read-out: FR T1/2 hr (converted)) and 1.5 h in data set [1] (male, 10 mg/kg, male rat, 10 mg/kg as 5 mg/ml solution in 10% DMSO, 20% Labrasol, 70% saline (footnote 1), read-out: MR T1/2 hr (converted)). Further, the time of peak concentration (Tmax) in data set [1] (female, 10 mg/kg, female rat, 10 mg/kg as 5 mg/ml solution in 10% DMSO 20% Labrasol, 70% saline (footnote 4), read-out: FR Tmax hr) was 1 h; in data set [1] (male, 10 mg/kg, male rat, 10 mg/kg as 5 mg/ml solution in 10% DMSO, 20% Labrasol, 70% saline (footnote 1), read-out: MR Tmax hr), 1 h. Further, the “MR Fp.o.” value in data set [1] (male rat, 10 mg/kg as 5 mg/ml solution in 10% DMSO, 20% Labrasol, 70% saline (footnote 1)) is reported as 6%^1.

The values above are taken from patent US6833372B2, “Non-peptide GnRH agents, Pharmaceutical compositions, and methods for their use” (Pfizer, Inc., priority 2002, dated 2004).
